Reference: patent publication US20140120232A1, “ACID TASTE/ACID SMELL-REDUCING AGENT” (T. HASEGAWA CO., LTD., priority 2011, published 2014)

Assay: Sensory evaluation of Vermont drink containing the agent
Details: ten panels
How it was run: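 Tridecadienal or tridecatrienal isomers added at various concentrations to a Vermont-flavoured drink (apple-cider vinegar, honey, liquid sugar, citric acid, trisodium citrate, 100 mL total). Ten panelists assessed acid taste/acid smell and aldehyde-type off-odour, and the concentration giving the best acid taste/smell quality was selected.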

## CCCCC/C=C\C/C=C\CCC=O [(Z,Z)-4,7-tridecadienal]
0.005 ppt
  A: number of panels, acid taste/acid smell extreme and cause irritation: 10
  B: number of panels, acid taste/acid smell slightly strong and slightly cause irritation: 0
  C: number of panels, acid taste/acid smell slightly unpleasant: 0
  Flavor judgment: number of panels who judged acid taste/acid smell quality the highest: 0
  N: number of panels, irritation of acid reduced to give a mild acid taste: 0
  X: number of panels, acid taste reduced but piercing odor characteristic to aldehydes unpleasant: 0
0.02 ppt
  A: number of panels, acid taste/acid smell extreme and cause irritation: 8
  B: number of panels, acid taste/acid smell slightly strong and slightly cause irritation: 1
  C: number of panels, acid taste/acid smell slightly unpleasant: 1
  Flavor judgment: number of panels who judged acid taste/acid smell quality the highest: 0
  N: number of panels, irritation of acid reduced to give a mild acid taste: 0
  X: number of panels, acid taste reduced but piercing odor characteristic to aldehydes unpleasant: 0
0.1 ppt
  A: number of panels, acid taste/acid smell extreme and cause irritation: 6
  B: number of panels, acid taste/acid smell slightly strong and slightly cause irritation: 2
  C: number of panels, acid taste/acid smell slightly unpleasant: 2
  Flavor judgment: number of panels who judged acid taste/acid smell quality the highest: 0
  N: number of panels, irritation of acid reduced to give a mild acid taste: 0
  X: number of panels, acid taste reduced but piercing odor characteristic to aldehydes unpleasant: 0
0.2 ppt
  A: number of panels, acid taste/acid smell extreme and cause irritation: 5
  B: number of panels, acid taste/acid smell slightly strong and slightly cause irritation: 3
  C: number of panels, acid taste/acid smell slightly unpleasant: 2
  Flavor judgment: number of panels who judged acid taste/acid smell quality the highest: 0
  N: number of panels, irritation of acid reduced to give a mild acid taste: 0
  X: number of panels, acid taste reduced but piercing odor characteristic to aldehydes unpleasant: 0
0.5 ppt
  A: number of panels, acid taste/acid smell extreme and cause irritation: 1
  B: number of panels, acid taste/acid smell slightly strong and slightly cause irritation: 1
  C: number of panels, acid taste/acid smell slightly unpleasant: 3
  Flavor judgment: number of panels who judged acid taste/acid smell quality the highest: 1
  N: number of panels, irritation of acid reduced to give a mild acid taste: 5
  X: number of panels, acid taste reduced but piercing odor characteristic to aldehydes unpleasant: 0
1 ppb
  A: number of panels, acid taste/acid smell extreme and cause irritation: 0
  B: number of panels, acid taste/acid smell slightly strong and slightly cause irritation: 0
  C: number of panels, acid taste/acid smell slightly unpleasant: 3
  Flavor judgment: number of panels who judged acid taste/acid smell quality the highest: 0
  N: number of panels, irritation of acid reduced to give a mild acid taste: 3
  X: number of panels, acid taste reduced but piercing odor characteristic to aldehydes unpleasant: 4
1 ppt
  A: number of panels, acid taste/acid smell extreme and cause irritation: 0
  B: number of panels, acid taste/acid smell slightly strong and slightly cause irritation: 1
  C: number of panels, acid taste/acid smell slightly unpleasant: 3
  Flavor judgment: number of panels who judged acid taste/acid smell quality the highest: 2
  N: number of panels, irritation of acid reduced to give a mild acid taste: 6
  X: number of panels, acid taste reduced but piercing odor characteristic to aldehydes unpleasant: 0
5 ppt
  A: number of panels, acid taste/acid smell extreme and cause irritation: 0
  B: number of panels, acid taste/acid smell slightly strong and slightly cause irritation: 1
  C: number of panels, acid taste/acid smell slightly unpleasant: 2
  Flavor judgment: number of panels who judged acid taste/acid smell quality the highest: 4
  N: number of panels, irritation of acid reduced to give a mild acid taste: 7
  X: number of panels, acid taste reduced but piercing odor characteristic to aldehydes unpleasant: 0
10 ppb
  A: number of panels, acid taste/acid smell extreme and cause irritation: 0
  B: number of panels, acid taste/acid smell slightly strong and slightly cause irritation: 1
  C: number of panels, acid taste/acid smell slightly unpleasant: 2
  Flavor judgment: number of panels who judged acid taste/acid smell quality the highest: 0
  N: number of panels, irritation of acid reduced to give a mild acid taste: 2
  X: number of panels, acid taste reduced but piercing odor characteristic to aldehydes unpleasant: 5
20 ppt
  A: number of panels, acid taste/acid smell extreme and cause irritation: 0
  B: number of panels, acid taste/acid smell slightly strong and slightly cause irritation: 0
  C: number of panels, acid taste/acid smell slightly unpleasant: 3
  Flavor judgment: number of panels who judged acid taste/acid smell quality the highest: 3
  N: number of panels, irritation of acid reduced to give a mild acid taste: 6
  X: number of panels, acid taste reduced but piercing odor characteristic to aldehydes unpleasant: 1
50 ppb
  A: number of panels, acid taste/acid smell extreme and cause irritation: 0
  B: number of panels, acid taste/acid smell slightly strong and slightly cause irritation: 0
  C: number of panels, acid taste/acid smell slightly unpleasant: 1
  Flavor judgment: number of panels who judged acid taste/acid smell quality the highest: 0
  N: number of panels, irritation of acid reduced to give a mild acid taste: 2
  X: number of panels, acid taste reduced but piercing odor characteristic to aldehydes unpleasant: 7
100 ppt
  A: number of panels, acid taste/acid smell extreme and cause irritation: 0
  B: number of panels, acid taste/acid smell slightly strong and slightly cause irritation: 1
  C: number of panels, acid taste/acid smell slightly unpleasant: 3
  Flavor judgment: number of panels who judged acid taste/acid smell quality the highest: 0
  N: number of panels, irritation of acid reduced to give a mild acid taste: 4
  X: number of panels, acid taste reduced but piercing odor characteristic to aldehydes unpleasant: 2
500 ppt
  A: number of panels, acid taste/acid smell extreme and cause irritation: 0
  B: number of panels, acid taste/acid smell slightly strong and slightly cause irritation: 2
  C: number of panels, acid taste/acid smell slightly unpleasant: 2
  Flavor judgment: number of panels who judged acid taste/acid smell quality the highest: 0
  N: number of panels, irritation of acid reduced to give a mild acid taste: 4
  X: number of panels, acid taste reduced but piercing odor characteristic to aldehydes unpleasant: 2
